Reference: ChEMBL document CHEMBL1138639, “Carbonic anhydrase inhibitors: inhibition of human cytosolic isozyme II and mitochondrial isozyme V with a series of benzene sulfonamide derivatives” (Bioorg Med Chem Lett, 2004)

Experiments:
[1] = biological target: Carbonic anhydrase 5A, mitochondrial (Homo sapiens, UniProt P35218)
Carbonic anhydrase 2 = Carbonic anhydrase 2 (Homo sapiens, UniProt P00918)

Sequence of Carbonic anhydrase 5A, mitochondrial (P35218 whole entry): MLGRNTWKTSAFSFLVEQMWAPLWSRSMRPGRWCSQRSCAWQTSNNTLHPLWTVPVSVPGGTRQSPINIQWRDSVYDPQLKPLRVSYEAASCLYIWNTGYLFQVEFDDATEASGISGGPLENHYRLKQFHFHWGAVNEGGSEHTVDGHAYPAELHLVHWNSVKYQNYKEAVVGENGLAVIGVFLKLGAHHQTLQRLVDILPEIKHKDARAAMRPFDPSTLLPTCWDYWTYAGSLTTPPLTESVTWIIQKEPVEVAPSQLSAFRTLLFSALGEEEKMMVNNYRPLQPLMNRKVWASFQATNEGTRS

SMILES | IC50 [1] | IC50 (Carbonic anhydrase 2)
COC(=O)c1ccccc1S(N)(=O)=O | 53.2 µM | –
NNc1ccccc1S(N)(=O)=O | 9.6 µM | –
NS(=O)(=O)c1nc2ccc([N+](=O)[O-])cc2s1 | 44.9 µM | 0.25 µM
N/C(S)=N/Nc1ccc(S(N)(=O)=O)cc1 | 63.7 µM | 0.29 µM
Nc1ccc(S(N)(=O)=O)cc1I | 9.4 µM | –
NS(=O)(=O)c1ccc([N+](=O)[O-])cc1 | 4.2 µM | 0.4 µM
N#CSc1ccc(S(N)(=O)=O)cc1 | 8.6 µM | 3.6 µM
NS(=O)(=O)c1cccc([N+](=O)[O-])c1 | 0.78 µM | 0.41 µM
Nc1nccc(Nc2ccc(S(N)(=O)=O)cc2)n1 | 29.9 µM | –
Nc1ccccc1S(N)(=O)=O | 15.3 µM | –
Nc1ccc(S(N)(=O)=O)cc1Br | 7.6 µM | –
NS(=O)(=O)c1ccc(CCO)cc1 | 17 µM | –
Nc1ccc(S(N)(=O)=O)cc1F | 9.3 µM | –
NS(=O)(=O)c1ccc(CO)cc1 | 9.3 µM | –
NCCc1ccc(S(N)(=O)=O)cc1 | 42.4 µM | –
Nc1ccc(S(N)(=O)=O)cc1Cl | 7.4 µM | –
NNc1ccc(S(N)(=O)=O)cc1 | 7.7 µM | –
NS(=O)(=O)c1ccc(C(=O)O)cc1 [CARZENIDE] | 2.65 µM | –
NCc1ccc(S(N)(=O)=O)cc1 [MAFENIDE] | 27.6 µM | –
Cc1ccc(S(N)(=O)=O)cc1 [P-TOLUENESULFONAMIDE] | 4.7 µM | –
[H]/N=C(/N)NS(=O)(=O)c1ccc(N)cc1 [SULFAGUANIDINE] | > 100 µM | > 100 µM
Nc1ccc(S(N)(=O)=O)cc1 [SULFANILAMIDE] | 32 µM | –
